Results taken from patent publication EP2961847B1, “NITRITE-REDUCTASE (NIRB) AS POTENTIAL ANTI-TUBERCULAR TARGET AND A METHOD TO DETECT THE SEVERITY OF TUBERCULOSIS DISEASE” (priority 2013, dated 2014).
Like-named read-outs stand apart in the source and are kept apart here.

Assays:
[1] = test system: M. tuberculosis in THP-1 macrophage; type: cell-based, Mycobacterium tuberculosis
THP-1 macrophages = assay: Cytotoxic effect on THP-1 macrophages, fluorescence microscopy after DAPI staining; type: cell-based, Human; details: 100 µM; images after 10th day of inhibitor treatment; compared with untreated control
Protocol: THP-1 macrophage cells were grown on cover slip in 8 well microplates and washed twice with chilled methanol followed by staining with 4', 6-diamidino-2-phenylindole (DAPI) at final concentration of 300 nM. Macrophage cells were kept for 15 min at room temperature under dark condition. After incubation, cells were washed three times with distilled water and analyzed under the fluorescence microscope (Leitz Wetzlar model, Germany) at 350 nm excitation and 450 nm emission wavelengths (400 X) using 'A'filter.
To investigate the host THP-1 macrophage cells condition due to its exposure to p-HMB inhibitor before considering its effective and specific inhibition of bacilli in macrophage infection models, fluorescence microscopic picture of THP-1 cells treated with p-HMB (100 µM) was compared with the untreated control after staining with DAPI(4',6-diamidino-2-phenylindole). Fluorescence images were taken after 10th day of inhibitor treatment.

[2] = test system: Mycobacterium tuberculosis

SMILES	decrease in intracellular viable cell count (log difference compared to control) [1] [log]	decrease in intracellular viable cell count (log difference compared to control) ([1]; […], cell counts on 10th day PI, control without inhibitor) [log]	reduction of bacilli count ([1]; summary statement: in-vitro and ex-vivo conditions) [log cfu]	cytotoxic effect on macrophage (integrity of nuclear structure) (THP-1 macrophages)	cell count reduced (log difference) [2] [log]	inhibition of bacilli grown under ammonia [2]
[N-]=[N+]=[N-] [Azide]	~1.5					
CS(=N)(=O)CC[C@H](N)C(=O)O (stereo partly drawn) [L-MSO, L-methionine sulfoximine]	~2.5					
O=C(O)c1cc[c]([Hg][OH])cc1 [p-HMB, para-hydroxy mercuric benzoate]		~2	~2	without exhibiting any cytotoxic effects on macrophage	~2.5	no inhibition was observed
